Assay [1] addresses T1, CrypDdi1-RVP (Cryptosporidium hominis, UniProt A0A0S4TE75). In words: Bio-layer interferometry (BLI), CrypDdi1-RVP. To be noted: inhibitor 75-600 μM; for binding of inhibitor to CrypDdi1-RVP: MES pH 5.5. Type of assay: binding, C. hominis.
Assay [2] has as its target T2, ToxoDdi1-RVP (Toxoplasma gondii, UniProt S7W9N7). Nature of the assay: biochemical. Type of assay: binding.
Assay [3] has as its target T2, ToxoDdi1-RVP. Nature of the assay: FRET activity assay with HIV protease substrate-1 and inhibition by HIV protease inhibitors, ToxoDdi1-RVP. Type of assay: biochemical, T. gondii. The protocol:
(§1) The activity assay was carried out using HIV protease substrate-1 (Sigma-aldrich). […] It contains the HIV protease cleavage site (Tyr-Pro) and two covalently modified amino acids for the detection of the proteolytic activity: the fluorophore EDANS was attached to the glutamic acid residue on the N-terminal side and the acceptor chromophore DABCYL to the lysine residue on the C-terminal side of the scissile bond. EDANS excited with light at 340 nm emits light at 490 nm which gets absorbed by the DABCYL group. Cleavage of the peptide separates the modified amino acids quenching FRET and emission could be detected at 490 nm ToxoDdi1-RVP and CrypDdi1-RVP were added in different concentrations to 2 μM of HIV protease substrate-1 in a buffer containing 0.1M sodium acetate pH 4.5, 1.0 M sodium chloride, 1.0 mM EDTA, 1.0 mM DTT and 10% DMSO. […] All the samples were incubated at 37 °C for 1 h and the fluorescence emission was recorded at 490 nm.

Assay [4] deals with T. gondii. To be noted: ref Wang et al., 2019; cited from earlier work.
Assay [5] deals with human Ddi2. As to conditions: ref Gu et al., 2020, Fassmannova et al.; cited from earlier work.
The target in assay [6] is T1, CrypDdi1-RVP. In words: FRET activity assay with HIV protease substrate-1 and inhibition by HIV protease inhibitors, CrypDdi1-RVP. Type of assay: biochemical, C. hominis. On the procedure:
as §1

The target of assay [7] is T1, CrypDdi1-RVP. In words: HPLC cleavage of HIV protease substrate-1 by CrypDdi1-RVP. Type of assay: biochemical, C. hominis. To be noted: 10 μM substrate, 22 μg/ml CrypDdi1-RVP, UV 490 nm.
Assay [8] has as its target T2, ToxoDdi1-RVP. Nature of the assay: HPLC cleavage of HIV protease substrate-1 by ToxoDdi1-RVP. Type of assay: biochemical, T. gondii. As to conditions: 10 μM substrate, 22 μg/ml ToxoDdi1-RVP, 100 mM sodium acetate pH 4.7, 1 M NaCl, 1 mM DTT, 37 °C, UV 490 nm.
In assay [9] the target is CrypDdi1-RVP (Cryptosporidium hominis). In words: crystal structure; CrypDdi1-RVP, microbatch, 8 mg/ml, 0.1 M MES-sodium hydroxide pH 6.0, 30% polyacrylate sodium salt, 10% ethanol, 291 K; space group H32, one molecule in the asymmetric unit, dimer by crystallographic 2-fold symmetry.
The target of assay [10] is T3, LeishDdi1-fl (Leishmania major, UniProt I7HUG0).
T3 construct: The full length Ddi1 construct, LeishDdi1-fl (1–390 aa) was cloned in pET-28a vector; hexa-histidine (N); made in house; host or cells: E. coli BL-21
Nature of the assay: BLI binding of peptides to LeishDdi1-fl. To be noted: 5 mM peptide immobilized on AR2G tip, LeishDdi1-fl in solution, 20 mM HEPES pH 7.5, 100 mM NaCl, 10 min, 1:1 Langmuir. Set-up: species or system L. major. (In BLI a coated tip is dipped into the sample, and binding shifts an interference pattern.)

In assay [11] the target is ToxoDdi1-RVP (Toxoplasma gondii). Nature of the assay: crystal structure; ToxoDdi1-RVP, microbatch, 8 mg/ml, 1.8 M ammonium citrate tribasic pH 7.0, 30% 2-propanol, 291 K; space group P41212, six dimers in the asymmetric unit.

As a reminder, the Kd is the concentration at which binding is half-saturated. The stoichiometry N is the number of molecules, sites or subunits per partner or assembly.

Ends that are not written are not given here.

T1 sequence (A0A0S4TE75 entry or part of it): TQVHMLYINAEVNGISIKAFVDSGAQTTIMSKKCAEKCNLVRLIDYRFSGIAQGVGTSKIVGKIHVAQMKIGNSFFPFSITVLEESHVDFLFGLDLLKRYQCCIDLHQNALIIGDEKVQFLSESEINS
T2 sequence (S7W9N7 entry or part of it): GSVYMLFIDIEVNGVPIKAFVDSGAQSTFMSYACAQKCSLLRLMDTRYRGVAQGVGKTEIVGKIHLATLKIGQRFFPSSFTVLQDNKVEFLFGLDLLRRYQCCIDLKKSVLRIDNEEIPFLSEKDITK
T3 sequence (I7HUG0 whole entry, the tested form may be a part): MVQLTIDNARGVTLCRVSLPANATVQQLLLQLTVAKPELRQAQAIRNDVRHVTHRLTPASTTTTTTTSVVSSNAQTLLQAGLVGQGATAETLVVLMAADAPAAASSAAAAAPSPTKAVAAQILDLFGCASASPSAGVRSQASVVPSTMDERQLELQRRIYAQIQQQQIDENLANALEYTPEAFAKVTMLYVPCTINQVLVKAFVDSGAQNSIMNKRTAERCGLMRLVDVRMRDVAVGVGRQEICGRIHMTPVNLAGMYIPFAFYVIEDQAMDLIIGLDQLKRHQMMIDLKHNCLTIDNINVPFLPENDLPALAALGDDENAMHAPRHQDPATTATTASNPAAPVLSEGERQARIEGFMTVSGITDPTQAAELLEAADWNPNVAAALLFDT

Regarding `CC(C)(C)NC(=O)[C@@H]1CN(Cc2cccnc2)CCN1C[C@@H](O)C[C@@H](Cc1ccccc1)C(=O)N[C@H]1c2ccccc2C[C@H]1O` [indinavir], in [1], the “binding of inhibitor to CrypDdi1-RVP” value is reported as “do not bind”.

On to `Cc1c(O)cccc1C(=O)N[C@@H](CSc1ccccc1)[C@H](O)CN1C[C@H]2CCCC[C@H]2C[C@H]1C(=O)NC(C)(C)C` [nelfinavir], for which the Kd in [2] was determined as 238 ± 6.3 µM. In [1], the “binding of inhibitor to CrypDdi1-RVP” value is listed as “do not bind”. The “effect on proteolytic activity of ToxoDdi1-RVP” value in [3] (500 μM inhibitor, 20 μM ToxoDdi1-RVP, 2 μM HIV protease substrate-1, 0.1M sodium acetate pH 4.5, 1.0 M NaCl, 1.0 mM EDTA, 1.0 mM DTT, 10% DMSO, 37 °C, 1 h, emission 490 nm) is “has an inhibitory effect on the proteolytic activity of ToxoDdi1-RVP”. Also, in [3] (500 μM inhibitor, 20 μM ToxoDdi1-RVP, FRET, 490 nm, 37 °C, 1 h), the “fluorescence intensity in the presence of inhibitor, ToxoDdi1-RVP” value was “did not increase”. The “growth of T. gondii” value in assay [4] is “inhibit the growth of T. gondii”. For the same molecule, in assay [5], the “inhibition of human Ddi2 activity” value was “ability to inhibit the activity of human Ddi2”.

On to `CC(C)c1nc(CN(C)C(=O)N[C@H](C(=O)N[C@@H](Cc2ccccc2)C[C@H](O)[C@H](Cc2ccccc2)NC(=O)OCc2cncs2)C(C)C)cs1` [ritonavir], for which the “growth of T. gondii” value in assay [4] is on record as “inhibit the growth of T. gondii”.

On to `CC(C)(C)NC(=O)[C@@H]1C[C@@H]2CCCC[C@@H]2CN1C[C@@H](O)[C@H](Cc1ccccc1)NC(=O)[C@H](CC(N)=O)NC(=O)c1ccc2ccccc2n1` [saquinavir], for which, in [6] (500 μM inhibitor, 20 μM CrypDdi1-RVP, 2 μM HIV protease substrate-1, 0.1M sodium acetate pH 4.5, 1.0 M NaCl, 1.0 mM EDTA, 1.0 mM DTT, 10% DMSO, 37 °C, 1 h, emission 490 nm), the “effect on proteolytic activity of CrypDdi1-RVP” value is reported as “has an inhibitory effect on the proteolytic activity of CrypDdi1-RVP”. In addition, the “fluorescence intensity in the presence of inhibitor, CrypDdi1-RVP” value in assay [6] (500 μM inhibitor, 20 μM CrypDdi1-RVP, FRET, 490 nm, 37 °C, 1 h) was “did not increase”. In addition, in [2] (BLI, inhibitor 75-600 μM, MES pH 5.5), the “binding of inhibitor to ToxoDdi1-RVP” value is listed as “do not bind”. In addition, in [1] (Octet Red96, His-tagged CrypDdi1-RVP on Ni-NTA tip, 100 mM MES pH 5.5, 150 mM NaCl, 0.5% BSA, 0.05% Tween 20, 3 min, 1:1 Langmuir), the Kd came out at 242 ± 3 µM.

For “Arg-Glu(EDANS)-Ser-Gln-Asn-Tyr-Pro-Ile-Val-Gln-Lys(DABCYL)-Arg [HIV protease substrate-1, synthetic FRET peptide containing the HIV protease cleavage site (Tyr-Pro), Sigma-aldrich]”, the “substrate cleavage by HPLC, CrypDdi1-RVP, 1 h” value in assay [7] (100 mM sodium acetate pH 4.7, 1 M NaCl, 1 mM DTT, 37 °C, 1 h) is “completely cleaved”. The “substrate cleavage by HPLC, CrypDdi1-RVP, 30 min” value in assay [7] (pH 4.7, 37 °C, 30 min) was “both the substrate and the product were detected”. The “substrate cleavage: fluorescence intensity with increasing protein concentration, CrypDdi1-RVP” value in assay [6] (2 μM substrate, no inhibitor, different CrypDdi1-RVP concentrations) is “An increase in the fluorescence intensity was observed with increasing protein concentration”. Further, the “substrate cleavage by HPLC, ToxoDdi1-RVP, 1 h” value in assay [8] is on record as “completely cleaved”. Further, in assay [3] (2 μM substrate, no inhibitor, different ToxoDdi1-RVP concentrations), the “substrate cleavage: fluorescence intensity with increasing protein concentration, ToxoDdi1-RVP” value was “An increase in the fluorescence intensity was observed with increasing protein concentration”.

For the molecule CrypDdi1-RVP (domain or fragment), in [9], the stoichiometry N was determined as 2.

The molecule GVGRQEI [GVGRQEI] displayed a Kd in assay [10] of 25.3 ± 3.5 µM.

Consider MIWRKPW [MIWRKPW], for which, in assay [10], the dissociation constant Kd came out at 2.8 ± 1.5 µM.

In the case of ToxoDdi1-RVP (domain or fragment), the stoichiometry N in assay [11] was found to be 2.
